# Tests used:
# Type in all cases: in vivo, C57BL/6J mice
# [1] = system: high-fat diet-fed C57BL/6J mouse; assay: Hepatic lipids in HFD-fed mice
# Protocol: Animal studies were performed and approved under the guidelines of the Institutional Animal Care and Use Committee in Taiwan (12 Mar. 2015). […] After acclimatization for one week, all of the mice were randomly assigned into a control (CON) group and a high-fat diet (HFD) group. For the following 12 weeks, the CON group (n=9) received a control diet or a low-fat diet (Diet 12450B, Research Diets, Inc., New Brunswick, N.J., USA), while the HFD group (n=54) received a high-fat diet (Diet 12451, Research Diets, New Brunswick, N.J., USA). […] After HFD feeding for 8 weeks, the HFD group was randomly subdivided into six groups (n=9 per group) receiving different treatments and fed on HFD. […] The HF+AnK1, HF+AnK2, and HF+AnK3 groups are collectively termed AnK-treated HFD groups in the following examples. The CON mice were administered vehicle. All treatments were administered via oral gavage once daily. After administration for 4 weeks, all mice were fasted 12 hours, and blood was collected from the retro-orbital sinus under ether anesthesia. At the end of the experiment, the mice were sacrificed via carbon dioxide inhalation. Liver, adipose tissue, and skeletal muscle were collected and immediately stored at −80° C. for target gene analysis.
# DGAT2 = assay: Liver mRNA by semi-quantitative RT-PCR: DGAT2; conditions: HFD-fed mice, oral gavage once daily 4 weeks, AnK 10, 20, 40, Feno 250, Metf 300 mg/kg/day, vs HF group
# Source text: (§1) The 4-week old male C57BL/6J mice (total amount n=63) were obtained from the National Laboratory Animal Center (Taipei, Taiwan). After acclimatization for one week, all of the mice were randomly assigned into a control (CON) group and a high-fat diet (HFD) group. […] After HFD feeding for 8 weeks, the HFD group was randomly subdivided into six groups (n=9 per group) receiving different treatments and fed on HFD. […] The HF+AnK1, HF+AnK2, and HF+AnK3 groups are collectively termed AnK-treated HFD groups in the following examples. The CON mice were administered vehicle. All treatments were administered via oral gavage once daily. After administration for 4 weeks, all mice were fasted 12 hours, and blood was collected from the retro-orbital sinus under ether anesthesia. […]
# (§2) Total RNA from liver tissue of mice was isolated with a Trizol Reagent (Molecular Research Center, Inc., Cincinnati, Ohio, USA) according to the manufacturer's instructions. The integrity of the extracted total RNA was examined by 2% agarose gel electrophoresis, and the RNA concentration was determined by the ultraviolet (UV) light absorbency at 260 nm and 280 nm (Spectrophotometer U-2800A, Hitachi). […]
# (§3) Levels of mRNA of target genes were quantified by semi-quantitative reverse transcription polymerase chain reaction (RT-PCR). […] PCR products were analyzed by 2% agarose gel and stained with ethidium bromide.
# SREBP1c = assay: Liver mRNA by semi-quantitative RT-PCR: SREBP1c; conditions: HFD-fed mice, oral gavage once daily 4 weeks, AnK 10, 20, 40, Feno 250, Metf 300 mg/kg/day, vs HF group
# Source text: as §1, §2, §3
# apoCIII = assay: Liver mRNA by semi-quantitative RT-PCR: apoCIII; conditions: HFD-fed mice, oral gavage once daily 4 weeks, AnK 10, 20, 40, Feno 250, Metf 300 mg/kg/day, vs HF group
# Source text: as §1, §2, §3
# membrane GLUT4 = assay: Western blotting of skeletal muscular membrane GLUT4 in HFD-fed mice; conditions: skeletal muscle, AnK 10, 20, 40, Feno 250, Metf 300 mg/kg/day, as compared with the HF group
# Source text: (§4) The 4-week old male C57BL/6J mice (total amount n=63) were obtained from the National Laboratory Animal Center (Taipei, Taiwan). After acclimatization for one week, all of the mice were randomly assigned into a control (CON) group and a high-fat diet (HFD) group. […] After HFD feeding for 8 weeks, the HFD group was randomly subdivided into six groups (n=9 per group) receiving different treatments and fed on HFD. […] The HF+AnK1, HF+AnK2, and HF+AnK3 groups are collectively termed AnK-treated HFD groups in the following examples. The CON mice were administered vehicle. All treatments were administered via oral gavage once daily. After administration for 4 weeks, all mice were fasted 12 hours, and blood was collected from the retro-orbital sinus under ether anesthesia. At the end of the experiment, the mice were sacrificed via carbon dioxide inhalation. Liver, adipose tissue, and skeletal muscle were collected and immediately stored at −80° C. for target gene analysis.
# About 0.1 g of liver tissue, skeletal muscle, or adipose tissue was used for the homogenate samples. Samples were powdered under liquid nitrogen and homogenized for 20 seconds in 500 μL buffer containing 20 mM Tris-HCl (pH 7.4 at 4° C.), 2% SDS, 5 mM EDTA, 5 mM EGTA, 1 mM dithiothreitol (DTT), 100 mM NaF, 2 mM sodium vanadate, 0.5 mM phenylmethylsulfonyl fluoride, 10 μg/mL leupeptin, and 10 μL/mL pepstatin. The total membrane fraction was used for measurement. The protein concentration in supernatant was determined with a BCA protein assay kit (Thermo Scientific, Rockford, Ill., USA). […] The membrane was blocked with 5% slim milk in Tris-buffered saline (TBS)(Amersham BioSciences, Uppsala, Sweden) containing 0.05% Tween-20 (Bio Rad, CA, USA) and incubated overnight at 4° C. with antibodies at 1:200 dilution. […] Immunoreactive bands were detected with ECL reagent kit (GE Healthcare BioSciences, Buckinghamshire, UK). The intensity of Western blot signals was analyzed using AlphaEase FC software (Alpha Innotech Corporation, Randburg, South Africa). […]
# [2] = system: phospho-AMPK (Thr^172)/total-AMPK; assay: Western blotting of phospho-AMPK/total-AMPK in skeletal muscle and liver; conditions: HFD-induced reduction, AnK 10, 20, 40, Feno 250, Metf 300 mg/kg/day, vs HF group
# Source text: as §4
# (§5) About 0.1 g of liver tissue, skeletal muscle, or adipose tissue was used for the homogenate samples. Samples were powdered under liquid nitrogen and homogenized for 20 seconds in 500 μL buffer containing 20 mM Tris-HCl (pH 7.4 at 4° C.), 2% SDS, 5 mM EDTA, 5 mM EGTA, 1 mM dithiothreitol (DTT), 100 mM NaF, 2 mM sodium vanadate, 0.5 mM phenylmethylsulfonyl fluoride, 10 μg/mL leupeptin, and 10 μL/mL pepstatin. The total membrane fraction was used for measurement. The protein concentration in supernatant was determined with a BCA protein assay kit (Thermo Scientific, Rockford, Ill., USA). […] The membrane was blocked with 5% slim milk in Tris-buffered saline (TBS)(Amersham BioSciences, Uppsala, Sweden) containing 0.05% Tween-20 (Bio Rad, CA, USA) and incubated overnight at 4° C. with antibodies at 1:200 dilution. Subsequently, the membrane was washed three times with TBS containing 0.05% Tween-20 and incubated with secondary antibody anti-rabbit (1:1000)(Jackson ImmunoResearch Laboratories, Inc., PA, USA) for 1 hour. Immunoreactive bands were detected with ECL reagent kit (GE Healthcare BioSciences, Buckinghamshire, UK). The intensity of Western blot signals was analyzed using AlphaEase FC software (Alpha Innotech Corporation, Randburg, South Africa). The structural protein GAPDH in the samples was used as the loading control.
# [3] = system: phospho-Akt (Ser^473)/total-Akt; assay: Western blotting of phospho-Akt/total-Akt in skeletal muscle and liver; conditions: HFD-induced reduction, AnK 10, 20, 40, Feno 250, Metf 300 mg/kg/day, vs HF group
# Source text: as §4, §5
# PPARα = assay: Western blotting of hepatic PPARα; conditions: liver; HFD-fed mice; AnK 10, 20, 40, Feno 250, Metf 300 mg/kg/day; vs HF group
# Source text: as §1, with “anesthesia. At the end of the experiment, the mice were sacrificed via carbon dioxide inhalation.” for “anesthesia.”
# About 0.1 g of liver tissue, skeletal muscle, or adipose tissue was used for the homogenate samples. […] The protein concentration in supernatant was determined with a BCA protein assay kit (Thermo Scientific, Rockford, Ill., USA). […] Immunoreactive bands were detected with ECL reagent kit (GE Healthcare BioSciences, Buckinghamshire, UK). The intensity of Western blot signals was analyzed using AlphaEase FC software (Alpha Innotech Corporation, Randburg, South Africa). […]
# FAS = assay: Western blotting of FAS in liver and adipose tissue; conditions: HFD-fed mice, AnK 10, 20, 40, Feno 250, Metf 300 mg/kg/day, vs HF group; for expression levels of FAS (protein): adipose tissue; for FAS expression levels (protein): liver
# Source text: as §4, §5
# [4] = HF + Metf: metformin 300 mg/kg/day oral gavage 4 weeks
# [5] = HF + AnK1: AnK 10 mg/kg/day oral gavage 4 weeks
# [6] = HF + AnK2: AnK 20 mg/kg/day oral gavage 4 weeks
# [7] = HF + AnK3: AnK 40 mg/kg/day oral gavage 4 weeks
Compound,"Liver lipids total lipid [1, 4]","Liver lipids triacylglycerol [1, 4]",mRNA levels of DGAT2 (DGAT2),mRNA levels of SREBP1c (SREBP1c),mRNA levels of apoCIII (apoCIII),increase of membrane GLUT4 levels (membrane GLUT4),expression levels of phospho-AMPK/total-AMPK ([2]; liver),expression levels of phospho-AMPK/total-AMPK ([2]; skeletal muscle),expression levels of phosphor-Akt/total-Akt ([3]; liver),expression levels of phosphor-Akt/total-Akt ([3]; skeletal muscle),PPARα expression levels (protein) (PPARα),expression levels of FAS (protein) (FAS),FAS expression levels (protein) (FAS),"Liver lipids total lipid [1, 5]","Liver lipids triacylglycerol [1, 5]","Liver lipids total lipid [1, 6]","Liver lipids triacylglycerol [1, 6]","Liver lipids total lipid [1, 7]","Liver lipids triacylglycerol [1, 7]"
"CN(C)C(=N)N=C(N)N [Metf, metformin, reference compound]",65.3 ± 4.9 mg/g,45.4 ± 4.2 µmol/g,significantly decreased,significantly decreased,significantly decreased,1.86 fold,significantly reversed,significantly reversed,significantly reversed,significantly reversed,significantly increased,significantly reduced,decreased,,,,,,
"C=C(CC[C@@H](C)[C@H]1CC[C@H]2C3=C(C(=O)C[C@]12C)[C@@]1(C)CC[C@@H](O)[C@](C)(O)[C@@H]1C[C@@H]3O)C(C)C(=O)O (stereo partly drawn) [AnK, 3α,4β,7β-trihydroxy-4α-methylergosta-8,24(28)-dien-11-on-25S-26-oic acid]",,,significantly decreased,significantly decreased,significantly decreased,1.52-2.20 fold,significantly reversed,significantly reversed,significantly reversed,significantly reversed,significantly increased,significantly reduced,decreased,73.1 ± 4.7 mg/g,56.3 ± 4.2 µmol/g,66.0 ± 4.8 mg/g,45.7 ± 3.9 µmol/g,64.5 ± 5.2 mg/g,45.2 ± 4.6 µmol/g
